In US12624018B1, “Inhibitors of RIPK2 and medical uses thereof” (Odyssey Therapeutics, Inc., priority 2022, dated 2026):
Read-outs that look alike come from different tables or passages of the source.

Assays:
RIPK2 enzyme = target: T1, RIPK2 enzyme (Homo sapiens, UniProt O43353); experiment: RIPK2 inhibition (ADP-Glo Kinase Assay); type: biochemical; conditions: RIPK2 5 nM, ATP 150 μM, MBP substrate, read-out: RIPK2 IC50
T1 construct: purchased Carna 09-128
In short: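 Human RIPK2 (5 nM) preincubated with compound 30 min at room temperature in 50 mM HEPES pH 7.5, 10 mM MgCl2, 2 mM DTT, 1 mM EGTA, 0.01% Brij-35, 0.05% BSA; native swine MBP as substrate. ADP formed quantified by ADP-Glo luminescence; percent inhibition relative to DMSO and no-enzyme controls.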

human NOD2 signaling = experiment: Inhibition of human NOD2 signaling in HEK-Blue-hNOD2 cells (L18-MDP stimulated, SEAP reporter); type: cell-based; conditions: NOD2 ligand stimulation, SEAP reporter, read-out: hNOD2 IC50
In short: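 HEK-Blue-hNOD2 cells (HEK293 with NOD2 and SEAP reporter), 12500/well, treated with 10-point 3-fold compound dilutions plus L18-MDP 0.5 ng/mL final, 24 h at 37 °C. Supernatant SEAP read with QUANTI-Blue after 3 h at 620 nm; IC50 by 4-parameter fit vs DMSO±L18-MDP controls.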

[1] = target: T2, RIPK2 and XIAP protein-protein interaction (Homo sapiens, UniProt O43353); experiment: Inhibition of the interaction of RIPK2 with XIAP (NanoBRET in HEK293T cells); type: cell-based; conditions: RIPK2 HaloTag / XIAP NanoLuc, read-out: NanoBRET Scaffolding IC50
T2 construct: the N-terminus of full-length RIPK2 was appended with the HaloTag fusion protein; expressed in transfected cells; host or cells: HEK293T
Excerpt: An assay measuring the RIPK2 and XIAP protein-protein interaction was generated using the NanoBRET protein:protein interaction system (Promega) which measures the energy transfer from a bioluminescent protein donor (NanoLuc fusion protein) to a fluorescent protein acceptor (Halotag fusion protein). In this assay, the C-terminus of full-length XIAP was appended with the NanoLuc fusion protein and the N-terminus of full-length RIPK2 was appended with the HaloTag fusion protein. Assay medium consisted of Opti-MEM I reduced serum medium with no phenol red plus 4% heat inactivated FBS. Transfection reagents were combined in a microfuge tube as follows: 400 μL of assay medium, 8 μL of vector with N-terminus of RIPK2 HaloTag fusion protein (vector concentration at 1 μg/μL), 0.8 μL of vector with C-terminus of XIAP NanoLuc fusion protein (vector concentration at 1 μg/μL), and 24 μL of FuGENE HD transfection reagent (Promega, catalogue number E2312). […] Test compounds were prepared into a 10 mM DMSO solution and were serially diluted into 10 points using a 3-fold dilution in a 384 well plate using a TECAN EV0200.
Method: HEK293T cells were transfected with the RIPK2 HaloTag fusion and XIAP NanoLuc fusion vectors in suspension. […] Transfection reagents were pre-mixed and incubated at room temperature for 30 minutes. Then the total transfection reagent mixture was added dropwise to the 16 mL cell suspension and mixed gently. 40 μL of the cells and transfection reagent suspension was plated into a white 384 well plate and incubated at 37° C. in a CO2 incubator for 24 hours. […] Lastly, a 3× solution of NanoBRET Nano-Glo substrate in Opti-MEM I reduced serum media (no phenol red; 20 μL total volume) was added to each well and incubated for 2-3 minutes at room temperature. The plate was then measured using 460 nm filter (donor emission) and 618 nm filter (acceptor emission) in an EnVision multimode plate reader (PerkinElmer). The NanoBRET ratio values were determined by dividing the acceptor emission value by the donor emission value for each sample.

[2] = Homo sapiens, HEK-Blue hNOD2, HEK-Blue-hNOD2 cells

T1 sequence (O43353 1-299 limits assumed): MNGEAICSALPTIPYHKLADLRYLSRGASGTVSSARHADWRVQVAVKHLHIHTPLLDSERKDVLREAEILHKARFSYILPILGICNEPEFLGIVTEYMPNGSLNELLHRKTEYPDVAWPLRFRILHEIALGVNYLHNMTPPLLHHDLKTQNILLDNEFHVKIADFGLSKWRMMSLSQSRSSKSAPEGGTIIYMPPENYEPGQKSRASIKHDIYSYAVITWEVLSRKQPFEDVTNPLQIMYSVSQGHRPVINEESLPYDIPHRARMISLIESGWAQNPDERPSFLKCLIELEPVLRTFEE
T2 sequence (O43353 whole entry, the tested form may be a part): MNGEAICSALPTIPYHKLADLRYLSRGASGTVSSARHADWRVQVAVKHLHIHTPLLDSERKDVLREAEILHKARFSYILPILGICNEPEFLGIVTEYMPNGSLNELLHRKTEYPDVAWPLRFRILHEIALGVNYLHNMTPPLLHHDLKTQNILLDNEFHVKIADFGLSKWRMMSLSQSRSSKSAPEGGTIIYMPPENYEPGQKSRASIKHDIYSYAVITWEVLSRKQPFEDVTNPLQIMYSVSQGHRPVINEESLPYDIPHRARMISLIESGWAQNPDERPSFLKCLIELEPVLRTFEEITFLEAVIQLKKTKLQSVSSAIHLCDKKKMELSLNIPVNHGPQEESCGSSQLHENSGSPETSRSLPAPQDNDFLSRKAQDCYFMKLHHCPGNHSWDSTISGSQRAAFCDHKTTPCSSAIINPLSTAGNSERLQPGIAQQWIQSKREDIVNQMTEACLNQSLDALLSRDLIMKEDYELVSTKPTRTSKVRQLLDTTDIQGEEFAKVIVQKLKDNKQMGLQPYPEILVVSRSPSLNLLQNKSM

Structure (SMILES) | IC50 (RIPK2 enzyme) | IC50 (human NOD2 signaling; [2]) | IC50 [1] | IC50 (human NOD2 signaling; HEK-Blue-hNOD2 cells)
CNC(=O)c1ccc2nccc(Oc3cc(F)c(CC(=O)Nc4cnn(C(C)(C)C)c4)c(F)c3C)c2c1 [Compound 504, 4-(4-(2-((1-(tert-butyl)-1H-pyrazol-4-yl)amino)-2-oxoethyl)-3,5-difluoro-2-methylphenoxy)-N-methylquinoline-6-carboxamide] | < 2.5 nM | 0.2 nM | 3.4 nM | 
[2H]C([2H])([2H])NC(=O)c1cc2c(Oc3c(C)cc(CC(=O)Nc4cnn(C(C)(C)C)c4)cc3C)ccnc2cc1F [Compound 583, 4-(4-(2-((1-(tert-butyl)-1H-pyrazol-4-yl)amino)-2-oxoethyl)-2,6-dimethylphenoxy)-7-fluoro-N-(methyl-d3)quinoline-6-carboxamide] | < 2.5 nM | 1.2 nM | 42.4 nM | 
Cc1cc(CC(=O)Nc2cnn(C(C)(C)C)c2)ccc1Oc1ccnc2ccc(C(N)=O)cc12 [Compound 487, 4-(4-(2-((1-(tert-butyl)-1H-pyrazol-4-yl)amino)-2-oxoethyl)-2-methylphenoxy)quinoline-6-carboxamide] | < 2.5 nM | 0.3 nM | 47.5 nM | 
Cc1cc(CC(=O)Nc2cnn(C34CC(C3)C4)c2)ccc1Oc1ccnc2ccc(S(=N)(=O)C3CC3)cc12 (single isomer, unassigned) [Compound 530, N-(1-(bicyclo[1.1.1]pentan-1-yl)-1H-pyrazol-4-yl)-2-(4-((6-(cyclopropanesul-fonimidoyl)quinolin-4-yl)oxy)-3-methylphenyl) acetamide] | < 2.5 nM |  | 94.3 nM | 21.5 nM
Cc1cc(CC(=O)Nc2cnn(C(C)(C)C)c2)ccc1Oc1ccnc2cc(F)c(C(N)=O)cc12 [Compound 489, 4-(4-(2-((1-(tert-butyl)-1H-pyrazol-4-yl)amino)-2-oxoethyl)-2-methylphenoxy)-7-fluoroquinoline-6-carboxamide] | < 2.5 nM | 0.1 nM | 7.1 nM | 
Cc1cc(CC(=O)Nc2cnn(C(C)(C)C)c2)ccc1Oc1ccnc2ccc(S(=N)(=O)C(C)C)cc12 (single isomer, unassigned) [Compound 547, N-(1-(tert-butyl)-1H-pyrazol-4-yl)-2-(3-methyl-4-((6-(propan-2-ylsulfonimidoyl)quinolin-4-yl)oxy)phenyl) acetamide] | < 2.5 nM | 1.3 nM | 153 nM | 
CNC(=O)c1ccc2nccc(Oc3c(C)cc(CC(=O)Nc4cnn(C(C)(C)C)c4)cc3C)c2c1 [Compound 506, 4-(4-(2-((1-(tert-butyl)-1H-pyrazol-4-yl)amino)-2-oxoethyl)-2,6-dimethylphenoxy)-N-methylquinoline-6-carboxamide] | < 2.5 nM | 2.2 nM | 73.6 nM | 
CNC(=O)c1cc2c(Oc3c(C)cc(CC(=O)Nc4cnn(C(C)(C)C)c4)cc3Cl)ccnc2cc1F [Compound 585, 4-(4-(2-((1-(tert-butyl)-1H-pyrazol-4-yl)amino)-2-oxoethyl)-2-chloro-6-methylphenoxy)-7-fluoro-N-methylquinoline-6-carboxamide] | < 2.5 nM | 0.9 nM | 29.3 nM | 
Cc1cc(CC(=O)Nc2cnn(C(C)(C)C)c2)ccc1Oc1ccnc2ccc(S(=N)(=O)C(C)C)cc12 (single isomer, unassigned) [Compound 548, N-(1-(tert-butyl)-1H-pyrazol-4-yl)-2-(3-methyl-4-((6-(propan-2-ylsulfonimidoyl)quinolin-4-yl)oxy)phenyl) acetamide] | < 2.5 nM |  | 108 nM | 0.9 nM
[2H]C([2H])([2H])NC(=O)c1ccc2nccc(Oc3cc(F)c(CC(=O)Nc4cnn(C56CC(C5)C6)c4)c(F)c3C)c2c1 [Compound 558, 4-(4-(2-((1-(bicyclo[1.1.1]pentan-1-yl)-1H-pyrazol-4-yl)amino)-2-oxoethyl)-3,5-difluoro-2-methylphenoxy)-N-(methyl-d3)quinoline-6-carboxamide] | < 2.5 nM | 0.7 nM | 57.3 nM | 
CNC(=O)c1ccc2nccc(Oc3cc(F)c(CC(=O)Nc4cnn(C56CC(C5)C6)c4)cc3C)c2c1 [Compound 502, 4-(4-(2-((1-(bicyclo[1.1.1]pentan-1-yl)-1H-pyrazol-4-yl)amino)-2-oxoethyl)-5-fluoro-2-methylphenoxy)-N-methylquinoline-6-carboxamide] | < 2.5 nM | 0.8 nM | 17.5 nM | 
Cc1cc(CC(=O)Nc2cnn(C(C)(C)C)c2)cc(Cl)c1Oc1ccnc2cc(F)c(C(N)=O)cc12 [Compound 584, 4-(4-(2-((1-(tert-butyl)-1H-pyrazol-4-yl)amino)-2-oxoethyl)-2-chloro-6-methylphenoxy)-7-fluoroquinoline-6-carboxamide] | < 2.5 nM | 1.3 nM | 44.6 nM | 

Results, then the compound that gave them:

IC50 (RIPK2 enzyme) | IC50 (human NOD2 signaling; [2]) | IC50 [1] | IC50 (human NOD2 signaling; HEK-Blue-hNOD2 cells) | Structure (SMILES)
< 2.5 nM | 2.7 nM | 311 nM |  | CC1(NC(=O)c2ccc3nccc(Oc4cc(F)c(CC(=O)Nc5cnn(C(C)(C)C)c5)cc4Cl)c3c2)CC1 [Compound 517, 4-(4-(2-((1-(tert-butyl)-1H-pyrazol-4-yl)amino)-2-oxoethyl)-2-chloro-5-fluorophenoxy)-N-(1-methylcyclopropyl)quinoline-6-carboxamide]
< 2.5 nM | 0.6 nM | 10.8 nM |  | CC(C)(C)n1cc(NC(=O)Cc2cc(Cl)c(Oc3ccnc4ccc(C(N)=O)cc34)cc2F)cn1 [Compound 497, 4-(4-(2-((1-(tert-butyl)-1H-pyrazol-4-yl)amino)-2-oxoethyl)-2-chloro-5-fluorophenoxy)quinoline-6-carboxamide]
< 2.5 nM | 9.9 nM | 1020 nM |  | Cc1cc(CC(=O)Nc2cnn(C(C)(C)C)c2)c(F)cc1Oc1ccnc2ccc(C(=O)N3C[C@@H]4C[C@H]3CN4)cc12 [Compound 471, 2-(4-((6-((1S,4S)-2,5-diazabicyclo[2.2.1]heptane-2-carbonyl)quinolin-4-yl)oxy)-2-fluoro-5-methylphenyl)-N-(1-(tert-butyl)-1H-pyrazol-4-yl)acetamide]
< 2.5 nM | 0.4 nM | 7.4 nM |  | CNC(=O)c1ccc2nccc(Oc3ccc(CC(=O)Nc4cnn(C56CC(C5)C6)c4)cc3C)c2c1 [Compound 500, 4-(4-(2-((1-(bicyclo[1.1.1]pentan-1-yl)-1H-pyrazol-4-yl)amino)-2-oxoethyl)-2-methylphenoxy)-N-methylquinoline-6-carboxamide]
< 2.5 nM | 7.8 nM | 171 nM |  | Cc1cc(CC(=O)Nc2cnn(C(C)(C)C)c2)cc(Cl)c1Oc1ccnc2ccc(S(C)(=O)=O)cc12 [Compound 473, N-(1-(tert-butyl)-1H-pyrazol-4-yl)-2-(3-chloro-5-methyl-4-((6-(methylsulfonyl)quinolin-4-yl)oxy)phenyl)acetamide]
< 2.5 nM | 0.2 nM | 3.4 nM |  | CNC(=O)c1ccc2nccc(Oc3ccc(CC(=O)Nc4cnn(C(C)(C)C)c4)cc3C)c2c1 [Compound 488, 4-(4-(2-((1-(tert-butyl)-1H-pyrazol-4-yl)amino)-2-oxoethyl)-2-methylphenoxy)-N-methylquinoline-6-carboxamide]
< 2.5 nM | 1.2 nM | 61.1 nM |  | Cc1c(Oc2ccnc3ccc(CS(C)(=O)=O)cc23)cc(F)c(CC(=O)Nc2cnn(C(C)(C)C)c2)c1F [Compound 562, N-(1-(tert-butyl)-1H-pyrazol-4-yl)-2-(2,6-difluoro-3-methyl-4-((6-((methylsulfonyl)methyl)quinolin-4-yl)oxy)phenyl)acetamide]
< 2.5 nM | 1.1 nM | 37.2 nM |  | Cc1cc(CC(=O)Nc2cnn(C(C)(C)C)c2)c(F)cc1Oc1ccnc2ccc(C(F)(F)C(N)=O)cc12 [Compound 572, 2-(4-(4-(2-((1-(tert-butyl)-1H-pyrazol-4-yl)amino)-2-oxoethyl)-5-fluoro-2-methylphenoxy)quinolin-6-yl)-2,2-difluoroacetamide]
